“And” between values parts separate entries of the source, which are not always exact repeats. Equal values may be shown once.

In turn, `Cc1ncc(CO)c(CO)c1O` [Pyridoxine] gave a melting point of 160 °C. `NNC(=O)c1ccncc1` [Isonicotinohydrazide]: the melting point turned out to be 171 °C. The same measure for `CCCCN` [Butylamine]: -49 °C. For `Sc1ccccc1` [thiophenol], the melting point is -15 °C.

As for `CCCCCCCCCCCCCCCCCC(=O)OC` [methyl stearate], the melting point is 40 °C. On to `C=CCC1(C(C)C)C(=O)NC(=O)NC1=O` [aprobarbital], for which the melting point turned out to be 143 °C. The same measure for `COc1cc(C(=O)NN)ccc1O` [vanillic acid hydrazide]: 211 °C.

With `Cc1ccc(-c2ccc(/C=C3\N=C(c4ccccc4)OC3=O)o2)cc1`, the melting point is 150 °C. `C=CCCCCCCCCCCCCCC` [1-hexadecene] yielded a melting point of 4 °C. `Cc1ccc(I)cc1` [4-iodotoluene] came in with a melting point of 34 °C.

`CCCCCCCc1ccc(-c2ccc(C#N)cc2)cc1` [4-cyano-4'-n-heptylbiphenyl] registered a melting point of 31 °C.

On to `CCC(=O)c1ccc(O)cc1O` [2',4'-dihydroxypropiophenone], for which the melting point is 100 °C. The molecule `O=[N+]([O-])c1cccc2ccccc12` [1-Nitronaphthalene] yielded a melting point of 61.5 °C.

`CC(Oc1ccc(Cl)cc1Cl)C(=O)O` (configuration not stated) [dichlorprop] displayed a melting point of 118 °C. Regarding `Nc1ncc(Br)cn1` [2-amino-5-bromopyrimidine], the melting point worked out at 233 °C. As for `COc1ccc(B(O)O)cc1OC` [3,4-dimethoxybenzeneboronic acid], the figure is 240 °C; as for `CN(C)C(=O)Nc1ccccc1` [Fenuron], 132 °C.

Molecule `COc1cc(Cl)c(Cl)c(Cl)c1Cl` [1-Methoxy-2,3,4,5-tetrachlorobenzene] came in with a melting point of 88 °C. On to `CCOC(=O)c1csc(C)n1` [ethyl 2-methylthiazole-4-carboxylate], for which the melting point was found to be 55 °C.

The molecule `[2H]C([2H])([2H])[2H]` [(~2~H_4_)Methane] displayed a melting point of -183 °C. Turning to `c1ccc(COCc2ccccc2)cc1` [benzyl_ether], the melting point worked out at 3 °C. As for `c1ccc(CCc2ccccc2)cc1` [1,2-diphenylethane], the figure is 51.5 °C and 52 °C; as for `CCCCCCCCCC` [N-decane], -30 °C; as for `CCCCOC(=O)c1ccccc1` [N-butyl benzoate], -22 °C. In turn, `NC(=O)c1c(Cl)cccc1Cl` [2,6-dichlorobenzamide] registered a melting point of 199 °C. As for `COc1cccc(C(=O)O)c1` [3-Methoxybenzoic acid], the figure is 106 °C. As for `O=C(O)CCS` [3-mercaptopropionic acid], the figure is 18 °C; as for `CC(=O)Oc1cccc(C(=O)O)c1C` [3-acetoxy-2-methylbenzoic acid], 150 °C; as for `NC(=O)N1c2ccccc2C=Cc2ccccc21` [carbazepine], 190 °C and 192 °C (2×). `CC(C)C1=C(O)C(=O)C2=C(C(=O)CC3C(C)(C)CCCC23C)C1=O` (configuration not stated) [7-Oxoroyleanone] yielded a melting point of 198 °C. As for `N#Cc1cccc(C(=O)O)c1` [3-cyanobenzoic_acid], the figure is 223 °C.

Molecule `N#Cc1cccc(O)c1` [3-hydroxybenzonitrile] came in with a melting point of 80 °C.

For `O=C(O)c1cccc(Cl)c1[N+](=O)[O-]` [3-chloro-2-nitrobenzoic acid], the melting point worked out at 237 °C.

As for `Cc1ccc(-c2nc(-c3ccccc3)cs2)cc1` [4-phenyl-2-(p-tolyl)thiazole], the melting point worked out at 58 °C.

For the molecule `N#Cc1cc(C(F)(F)F)ccc1Cl` [2-chloro-5-(trifluoromethyl)benzonitrile], the melting point came out at 39 °C. With `c1cncnc1` [pyrimidine], the melting point is 21 °C. Consider `C/C(C)=CC=C(/C)C` [2,5-dimethyl-2,4-hexadiene], for which the melting point was determined as 13 °C. As for `O=C1CCCCCCCCCCCCCCO1` [pentadecanolide], the melting point came to 35 °C.

In turn, `C#CC1(O)CCC2C3CCc4cc(O)ccc4C3CCC21C` (configuration not stated) [17a-Ethynylestradiol] had a melting point of 141 °C. As to `CCC1C(=O)CCC1=O` [2-ethyl-1,3-cyclopentanedione], the melting point is 169 °C. The molecule `O=C(CC(=O)C(F)(F)F)c1cccs1` [1-(2-thenoyl)-3,3,3-trifluoroacetone] gave a melting point of 43 °C. As for `CC=C(C)Br` [2-bromo-trans-2-butene], the figure is -115 °C. `ClC(Cl)c1ccc(C(Cl)Cl)cc1` [1,4-bis(dichloromethyl)benzene] yielded a melting point of 93 °C. `O=C(O)c1ccc(C(=O)O)c(Br)c1` [2-bromoterephthalic acid] showed a melting point of 299 °C. The molecule `CCCCCCCCCCCCN(CCCCCCCCCCCC)CCCCCCCCCCCC` [tri-n-dodecylamine] came in with a melting point of 15 °C.

The molecule `Cc1ccc(C(=O)c2ccccc2C(=O)O)cc1` [2-(4-methylbenzoyl)benzoic acid] returned a melting point of 140 °C.

Molecule `C=C[C@H]1C[N@@]2CC[C@H]1C[C@H]2[C@H](O)c1ccnc2ccccc12` [cinchonidine] returned a melting point of 204 °C.

In the case of `O=C1C(=O)c2ccccc2-c2ccccc21` [Phenanthrene-9,10-dione], the melting point worked out at 210 °C. As to `O=C(O)C(F)(F)C(F)(F)C(F)(F)C(F)(F)C(F)(F)C(F)(F)C(F)(F)C(F)(F)C(F)(F)F` [Nonadecafluorodecanoic acid], the melting point stood at 78 °C. For `CCCCCCCCCC` [decane], the melting point was -30 °C and -29.8 °C. For `O=C(O)C(Cl)(Cl)Cl` [trichloroacetic acid], the melting point was determined as 57.5 °C. As to `O=c1[nH]cc(C(F)(F)F)c(=O)[nH]1` [5-(trifluoromethyl)uracil], the melting point came to 253 °C. The same measure for `CC(=O)c1ccc(O)c(C(F)(F)F)c1` [4'-hydroxy-3'-(trifluoromethyl)acetophenone]: 176 °C; for `NCC(=O)NCC(=O)O` [Glycylglycine]: 258 °C; for `O=C1OC2(c3ccc(O)cc3Oc3cc(O)ccc32)c2ccccc21` [fluorescein]: 320 °C. `O=C(O)CCCCCCC(=O)O` [suberic_acid] showed a melting point of 144 °C. In turn, `O=C(O)c1cc(Cl)ccc1Cl` [2,5-dichlorobenzoic_acid] had a melting point of 156 °C. `CC(C)NCC(O)c1cc(O)cc(O)c1` (configuration not stated) [metaproterenol] came in with a melting point of 100 °C. As for `CCCCCCCCCCCC` [Dodecane], the figure is -9.6 °C; as for `Oc1cccc2ccc3cccnc3c12` [10-hydroxybenzo[h]quinoline], 104 °C. The same measure for `COC(=O)c1ccc(Cl)cc1` [methyl_4-chlorobenzoate]: 44 °C. For `CCCCCCC=O` [heptanal], the melting point was -43 °C. The molecule `Clc1cc(Cl)c(-c2ccccc2)cc1Cl` [2,4,5-trichlorobiphenyl] returned a melting point of 78 °C. As for `O=Cc1ccc(Br)cc1` [4-bromobenzaldehyde], the melting point was determined as 57 °C. The molecule `C[C@]12CCC(=O)C=C1CC[C@@H]1[C@@H]2[C@@H](O)C[C@@]2(C)[C@H]1CC[C@]2(O)C(=O)CO` [Hydrocortisone] had a melting point of 218 °C. Consider `C=CCC1(CC(C)C)C(=O)NC(=O)NC1=O` [butalbital], for which the melting point stood at 138 °C.

`O=C(O)c1ccccc1N=Nc1ccc(O)cc1` [2-(p-hydroxyphenylazo)benzoic acid] yielded a melting point of 206 °C. In turn, `ON=Cc1c(F)cccc1Cl` [2-chloro-6-fluorobenzaldoxime] returned a melting point of 126 °C. Molecule `CCOC(=O)c1c[nH]nc1C(F)(F)F` [ethyl 3-trifluoromethyl-1h-pyrazole-4-carboxylate] yielded a melting point of 144 °C. For the molecule `N#CN` [cyanamide], the melting point came out at 45 °C. Take `CS(=O)(=O)OCCCCOS(C)(=O)=O` [busulfan]: the melting point was determined as 116 °C. The molecule `Nc1ncnc(Nc2ccc(Cl)cc2)n1` [chlorazanil] gave a melting point of 233 °C. For `O=Cc1ccccc1` [benzaldehyde], the melting point was -56.5 °C and -55.6 °C. As for `O=C1OC(c2ccccc2)=NC1=Cc1ccccc1F` [4-(2-Fluoro-benzylidene)-2-phenyl-4H-oxazol-5-one], the figure is 149 °C; as for `c1ccc(CN(Cc2ccccc2)Cc2ccccc2)cc1` [tribenzylamine], 93 °C; as for `C#CC(C)(C)C` [3,3-Dimethylbut-1-yne], -78 °C.

Consider `Oc1ccccc1C=NCCCN=Cc1ccccc1O` [N,N'-bis(salicylidene)-1,3-propanediamine], for which the melting point was 52 °C. As for `COc1cccc(B(O)O)c1OC` [2,3-dimethoxybenzeneboronic acid], the figure is 69 °C; as for `Cc1cc(N)ccc1F` [4-fluoro-3-methylaniline], 34 °C; as for `CN(C)c1cccc(O)c1` [3-(Dimethylamino)phenol], 83 °C. `Cc1cc(Br)c(C)cc1Br` [2,5-dibromo-p-xylene]: the melting point is 73 °C. For the molecule `COc1ccc(OC)c(C=O)c1` [2,5-dimethoxybenzaldehyde], the melting point is 52 °C.

`CC(C)(C)OC(=O)N[C@@H](Cc1cccs1)C(=O)O` [N-boc-3-(2-thienyl)-L-alanine] displayed a melting point of 74 °C.

With `OC1CCCCCCC1` [cyclooctanol], the melting point amounted to 15 °C. As for `Cc1noc(C)c1B(O)O` [3,5-dimethylisoxazole-4-boronic acid], the figure is 107 °C; as for `CCCCCCCCN` [1-aminooctane], 0 °C. The same measure for `CN(C)c1ccc([N+](=O)[O-])cc1` [N,N-dimethyl-4-nitroaniline]: 165 °C; for `O=C(Cc1ccc(-c2ccccc2)cc1)Nc1ccccn1` [difenpiramide]: 122 °C.

`O=[N+]([O-])c1cccc(CCl)c1` [3-nitrobenzyl_chloride] returned a melting point of 47 °C.

`O=C(O)c1cccc(O)c1O` [2,3-dihydroxybenzoic acid] registered a melting point of 206 °C. In turn, `OCCC12CC3CC(CC(C3)C1)C2` [1-adamantaneethanol] registered a melting point of 74 °C. On to `CCCCCCCCCCCCC` [tridecane], for which the melting point is -5 °C.

For orientation: melting point means the temperature, or range, at which the solid turns liquid.

The values above are taken from the Bradley open melting point set (2014).
